Laboratory results from patent EP1306084A1, “Compositions for the control of parasitic infestations in fish” (Alpharma AS, priority 1998, dated 1999).

Columns and labels:
sea lice [1] = experiment: Oral treatment in freshwater before sea transfer, sea lice counts after natural infection (Example 4); type: in vivo, salmon (Salmo salar); settings: bath treatment, 7 weeks into the trial
Protocol: (§1) The treatment dosage was 9 mg hexaflumuron per kg fish per day for 10 days. This is indicated by "Groups/Timepoints" in the figure; • Figure 2 relates to the trial in Example 2 that was carried out on Atlantic salmon (Salmo salar). […] The treatment dosage varied between 3 - 9 mg hexaflumuron and 9- 12 mg fluazuron per kg fish per day for 7 days. This is indicated by "Groups/Timepoints" in the diagram. […] The treated groups are compared to an untreated control group. The treatment dosage was 4 mg hexaflumuron per kg fish per day for 5 days. This is indicated by "Groups/Timepoints" in the figure. Cage 2 = controls, Cage 4-6 = treated groups, 16.6.97 = time point for sea transfer and 5.8.97= controls treated by bathing with deltamethrin; • Figure 4 relates to the trial described in Example 5, which was carried out on sea trout (Salmo trutta). […] The treated groups are compared with an untreated control group. The dosage for oral treatment was 4 mg hexaflumuron per kilo fish per day for 5 days, and 5 ppm hexaflumuron as a 30 minute bath treatment. This is indicated by "Groups/Timepoints" in the figure. Cage 1.4 = Controls, cage 1.3 = Oral treatment, cage 1.2 = Bath treatment. […] The treated groups are compared with an untreated control group, and one group that has been treated orally with teflubenzuron (10 mg/kg of teflubenzuron per kg fish per day for 7 days). The dosage for oral treatment was 5.6 mg hexaflumuron per kg fish per day for 7 days, and 5 ppm hexaflumuron as a 30 minute bath treatment. […] End of treatment: 22.10.97, Sea transfer: 23.10.97. […]
About 2,500 salmon (Salmo salar) of average weight 42 grams were treated orally with a daily dosage of 4 mg hexaflumuron per kilo fish for 5 days. […] The number of lice on 10 fish from each cage were counted every third week to check if there was any difference in the number of lice in the cages. […]

sea lice [2] = experiment: Oral or bath treatment in freshwater before sea transfer, sea lice counts after natural infestation (Example 6); type: in vivo, Atlantic salmon (Salmo salar)
Protocol: (§2) The treatment dosage was 9 mg hexaflumuron per kg fish per day for 10 days. This is indicated by "Groups/Timepoints" in the figure; • Figure 2 relates to the trial in Example 2 that was carried out on Atlantic salmon (Salmo salar). […] The treatment dosage varied between 3 - 9 mg hexaflumuron and 9- 12 mg fluazuron per kg fish per day for 7 days. This is indicated by "Groups/Timepoints" in the diagram. […] The treated groups are compared to an untreated control group. The treatment dosage was 4 mg hexaflumuron per kg fish per day for 5 days. This is indicated by "Groups/Timepoints" in the figure. Cage 2 = controls, Cage 4-6 = treated groups, 16.6.97 = time point for sea transfer and 5.8.97= controls treated by bathing with deltamethrin; • Figure 4 relates to the trial described in Example 5, which was carried out on sea trout (Salmo trutta). […] The treated groups are compared with an untreated control group. The dosage for oral treatment was 4 mg hexaflumuron per kilo fish per day for 5 days, and 5 ppm hexaflumuron as a 30 minute bath treatment. This is indicated by "Groups/Timepoints" in the figure. Cage 1.4 = Controls, cage 1.3 = Oral treatment, cage 1.2 = Bath treatment. […] The treated groups are compared with an untreated control group, and one group that has been treated orally with teflubenzuron (10 mg/kg of teflubenzuron per kg fish per day for 7 days). The dosage for oral treatment was 5.6 mg hexaflumuron per kg fish per day for 7 days, and 5 ppm hexaflumuron as a 30 minute bath treatment. […] End of treatment: 22.10.97, Sea transfer: 23.10.97. T1 = 3 weeks post end of treatment, T2 = 5 weeks post end of treatment, T3 = 9 weeks post end of treatment, T4 = 12 weeks post end of treatment; • Figure 6 relates to the trial in Example 6 at time points 4-6, with the same trial parameters as for Figure 5. T5 = 15 weeks post end of treatment, T6 = 17 weeks post end of treatment. Cage 3 and 4 were treated by bath with deltamethrin after sea lice counting at T4 (12.01.98); • Figure 7 relates to the trial described in Example 7 where salmon were injected on 17.12.97 with two formulations (groups L and R, respectively) of hexaflumuron and a vaccine formulation without hexaflumuron (control). […] The vaccinated fish was transferred to sea water on 09.01.98; • Figure 8 summarises the trial of Example 8 where salmon smolts were injected with 9 different active substances on 08.07.98. Only results for Moxidectin (Mox.), Lufenuron (Luf.) and hexaflumuron in Apoject 1-Fural (Hex.Apo) and in animal oil (Hex.oil) are shown, and • Figure 9 summarises the trial described in Example 10 where salmon were injected on 03.12.97 with 3 different formulations of hexaflumuron (Hexa 1, Hexa 2 and Hexa 3). The fish were transferred to sea water at T0.
About 400 Atlantic salmon (Salmo salar) of an average weight of 80 grams were divided into four groups of 100 fish in each. One group was given an oral treatment of 5.6 mg hexaflumuron per kg fish each day for 7 days before sea transfer. Group two was given a bath treatment with a dosage of 5 ppm (mg/l) hexaflumuron for 30 minutes with a formulation containing 10% hexaflumuron. Group three was given oral treatment with a daily dosage of 10 mg teflubenzuron per kg fish for 7 days, while the last group remained untreated. […] Every third week, lice from 10 fish in each cage were counted to assess if there was a difference in the number of lice between the cages. […]

sea lice [3] = experiment: Oral or bath treatment in freshwater before sea transfer, sea lice counts after natural infection (Example 5); type: in vivo, sea trout (Salmo trutta); settings: bath treatment 2, 5 and 8 weeks after sea transfer
Protocol: as §1, with “23.10.97. T1 = 3 weeks post end of treatment, T2 = 5 weeks post end of treatment, T3 = 9 weeks post end of treatment, T4 = 12 weeks post end of treatment; • Figure 6 relates to the trial in Example 6 at time points 4-6, with the same trial parameters as for Figure 5.” for “23.10.97.”
About 300 sea trout (Salmo trutta) of an average weight of 160 grams were divided into three groups of 100 fish each. […] Lice from 6-10 fish from each cage were counted every third week to assess whether there was any difference in the number of lice between the cages. […]

sea lice [4] = experiment: Injection of 9 active substances, protective effect against sea lice (Example 8); type: in vivo, salmon smolt
Protocol: as §2
In this trial 9 different active substances were tested for protective effect against sea lice. 1,200 salmon smolt were, prior the start of the trial, vaccinated with a commercial vaccine, ALPHA JECT 5100.
One week after sea water transfer the salmon was divided into 12 groups and injected with different formulations of the 9 different active substances. In parallel with the 12 groups, a 13th group comprising 50 fish of the same origin and size was injected with a saline (PBS) solution without active substance. This group served as negative control/reference group in respect of sea lice infestations. The groups were marked by fin cutting and distributed randomly into 3 cages.
The active substances that were used as injection were hexaflumuron, buprofezin, diflubenzuron, fluazuron, lufenuron, ivermectin, doramectin, moxidectin and milbemycin oxime, respectively. All the fish were injected with 0.2 ml of the various injection formulations. Hexaflumuron, buprofezin, fluazuron, lufenuron and diflubenzuron were administered at a dosage of about 50 mg/kg whereas ivermectin, doramectin and moxidectin were administered at a dosage of 0.2 mg/kg (recommended dosage for mammals). […]

sea lice [5] = experiment: Oral treatment (coated feed / Akvaletter) of naturally sea lice infected salmon in minicages (Example 2); type: in vivo, Atlantic salmon (Salmo salar); settings: fluazuron groups, 9.0-12.0 mg per day, 7 days
Protocol: as §2, with “T0. […]” for “T0.”

CC1(C)[C@H](C(=O)O[C@H](C#N)c2cccc(Oc3ccccc3)c2)[C@@H]1C=C(Br)Br [deltamethrin, reference compound]
bath treatment of control fish to reduce the number of pre-adult lice (sea lice [1]): successful | bath treatment of control and teflubenzuron groups, number of lice (sea lice [2]; bath treatment after T4): successful | bath treatment of control fish, number of lice (sea lice [3]): successful

O=C(NC(=O)c1c(F)cccc1F)Nc1ccc(Cl)cc1 [diflubenzuron, reference compound]
protection against new establishments by sea lice (sea lice [4]; summary statement referring to Example 8): do not protect

O=C(NC(=O)c1c(F)cccc1F)Nc1ccc(Cl)c(Oc2ncc(C(F)(F)F)cc2Cl)c1 [fluazuron, reference compound]
reduction as compared to the control group (sea lice [5]): 25%

O=C(NC(=O)c1c(F)cccc1F)Nc1cc(Cl)c(OC(F)(F)C(F)C(F)(F)F)cc1Cl (centres unmarked) [lufenuron, reference compound]
protection against sea lice (sea lice [4]; T2, 40 days after injection, hexaflumuron, lufenuron about 50 mg/kg, moxidectin 0.2 mg/kg): showed protection | lice on average (sea lice [4]; T3, 70 days after injection, formulated in Apoject 1-Fural, about 50 mg/kg, control group 5.6): 0.6 | good protection against lice until T5, time after injection (sea lice [4]; lufenuron in Apoject 1-Fural, about 50 mg/kg): 128 days | protection following injection (sea lice [4]; other active substances, summary of trial): good protection for an extended period of time

O=C(NC(=O)c1c(F)cccc1F)Nc1cc(Cl)c(F)c(Cl)c1F [teflubenzuron]
number of lice compared with untreated control group (sea lice [2]; oral 10 mg teflubenzuron per kg fish daily for 7 days, at each assessment): same number of lice as the untreated control group | protection against new establishments by sea lice (sea lice [2]; summary statement referring to Example 6): do not protect
